Structures can show the parent of a compound that is named as a salt. Where two headings read alike, the source gives them in different places.

Broadly, the IC50 is the concentration that gives 50% inhibition.

Type in all cases: biochemical
The target in experiment [1] is T1, human JAK1 (a.a. 837-1142) (Homo sapiens, UniProt P23458).
T1 construct: human JAK1 (a.a. 837-1142); His tag (N); made in house; host or cells: insect cells (baculovirus)
Kind of experiment: In vitro JAK kinase assay (HTRF, phosphorylation of a biotinylated peptide), JAK1. As to conditions: read-out: JAK1 IC50. A digest of the protocol: (§1)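 Kinase activity was measured as phosphorylation of a biotinylated peptide, with ATP at 90 μM for JAK1, 30 μM for JAK2 and 3 μM for JAK3. Reactions ran 1 hr at room temperature, were stopped with EDTA plus SA-APC and Eu-Py20, and were read by HTRF after 40 minutes of antibody binding.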

The target in experiment [2] is T2, human JAK2 (a.a. 828-1132) (Homo sapiens, UniProt O60674).
T2 construct: JAK2 (a.a. 828-1132); His tag (N); made in house; host or cells: insect cells (baculovirus)
T2 sequence (O60674 828-1132): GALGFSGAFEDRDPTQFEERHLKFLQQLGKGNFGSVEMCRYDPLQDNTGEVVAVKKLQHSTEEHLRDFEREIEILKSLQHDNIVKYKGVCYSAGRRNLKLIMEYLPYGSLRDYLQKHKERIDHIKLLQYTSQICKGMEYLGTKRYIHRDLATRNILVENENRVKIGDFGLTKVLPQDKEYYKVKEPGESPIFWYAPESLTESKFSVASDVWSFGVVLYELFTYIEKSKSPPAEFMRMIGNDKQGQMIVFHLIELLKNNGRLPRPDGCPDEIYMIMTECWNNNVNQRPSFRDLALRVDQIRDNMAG
Nature of the experiment: In vitro JAK kinase assay (HTRF, phosphorylation of a biotinylated peptide), JAK2. A digest of the protocol:
as §1

For experiment [3], the target named is T3, human JAK3 (a.a. 781-1124) (Homo sapiens, UniProt P52333).
T3 construct: JAK3 (a.a. 781-1124); His tag (N); made in house; host or cells: insect cells (baculovirus)
T3 sequence (P52333 781-1124): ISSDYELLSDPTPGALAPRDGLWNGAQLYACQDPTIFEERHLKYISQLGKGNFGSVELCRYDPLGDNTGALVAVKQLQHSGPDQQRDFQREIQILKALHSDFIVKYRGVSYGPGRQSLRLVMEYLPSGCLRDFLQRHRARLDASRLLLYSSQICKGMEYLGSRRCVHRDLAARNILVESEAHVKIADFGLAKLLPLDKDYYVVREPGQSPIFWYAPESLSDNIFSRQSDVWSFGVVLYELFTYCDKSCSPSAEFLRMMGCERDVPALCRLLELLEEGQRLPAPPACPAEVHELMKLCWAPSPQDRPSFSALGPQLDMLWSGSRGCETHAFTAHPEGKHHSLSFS
Kind of experiment: In vitro JAK kinase assay (HTRF, phosphorylation of a biotinylated peptide), JAK3. Summed up: as §1
(In general: Time-resolved FRET reads energy transfer from a long-lived donor to a nearby acceptor.)

In experiment [4] the target is TYK2 (Homo sapiens, UniProt P29597). Nature of the experiment: TYK2 kinase inhibition (Table A1).
TYK2, sequence (P29597 whole entry): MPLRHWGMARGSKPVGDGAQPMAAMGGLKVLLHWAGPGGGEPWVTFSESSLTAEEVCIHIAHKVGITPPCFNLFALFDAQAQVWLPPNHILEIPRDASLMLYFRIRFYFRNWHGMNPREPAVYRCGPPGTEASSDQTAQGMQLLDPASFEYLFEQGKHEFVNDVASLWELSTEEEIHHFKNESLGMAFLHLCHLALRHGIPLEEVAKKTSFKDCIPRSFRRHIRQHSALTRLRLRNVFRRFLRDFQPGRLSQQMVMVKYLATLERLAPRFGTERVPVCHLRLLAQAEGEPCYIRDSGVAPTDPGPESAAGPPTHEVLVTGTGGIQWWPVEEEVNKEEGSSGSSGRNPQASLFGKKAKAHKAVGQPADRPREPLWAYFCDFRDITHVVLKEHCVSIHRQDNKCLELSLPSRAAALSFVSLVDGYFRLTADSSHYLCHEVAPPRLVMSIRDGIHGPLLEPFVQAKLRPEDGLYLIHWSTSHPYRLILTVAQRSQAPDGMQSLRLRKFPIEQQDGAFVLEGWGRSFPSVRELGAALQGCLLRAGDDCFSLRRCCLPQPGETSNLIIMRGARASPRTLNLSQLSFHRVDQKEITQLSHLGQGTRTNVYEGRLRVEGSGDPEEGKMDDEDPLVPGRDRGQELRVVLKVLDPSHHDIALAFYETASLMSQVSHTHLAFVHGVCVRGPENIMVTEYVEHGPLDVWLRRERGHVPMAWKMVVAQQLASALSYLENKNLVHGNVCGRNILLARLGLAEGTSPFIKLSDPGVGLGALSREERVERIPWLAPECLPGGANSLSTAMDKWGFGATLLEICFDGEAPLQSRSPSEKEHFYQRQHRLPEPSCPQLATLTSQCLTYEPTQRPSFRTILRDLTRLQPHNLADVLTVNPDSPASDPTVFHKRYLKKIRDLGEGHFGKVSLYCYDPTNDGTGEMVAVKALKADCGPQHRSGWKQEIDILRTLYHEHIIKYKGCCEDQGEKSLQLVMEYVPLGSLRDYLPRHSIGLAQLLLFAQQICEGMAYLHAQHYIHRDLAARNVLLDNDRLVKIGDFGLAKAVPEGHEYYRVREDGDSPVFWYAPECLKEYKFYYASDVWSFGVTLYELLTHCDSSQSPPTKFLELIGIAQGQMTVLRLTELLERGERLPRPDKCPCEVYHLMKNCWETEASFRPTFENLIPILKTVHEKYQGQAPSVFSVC
In experiment [5] the target is T4, Recombinant Human Anaplastic Lymphoma Kinase (Homo sapiens, UniProt Q9UM73).
T4 construct: purchased Invitrogen, Carlsbad, Calif
T4 sequence (Q9UM73 19-1620): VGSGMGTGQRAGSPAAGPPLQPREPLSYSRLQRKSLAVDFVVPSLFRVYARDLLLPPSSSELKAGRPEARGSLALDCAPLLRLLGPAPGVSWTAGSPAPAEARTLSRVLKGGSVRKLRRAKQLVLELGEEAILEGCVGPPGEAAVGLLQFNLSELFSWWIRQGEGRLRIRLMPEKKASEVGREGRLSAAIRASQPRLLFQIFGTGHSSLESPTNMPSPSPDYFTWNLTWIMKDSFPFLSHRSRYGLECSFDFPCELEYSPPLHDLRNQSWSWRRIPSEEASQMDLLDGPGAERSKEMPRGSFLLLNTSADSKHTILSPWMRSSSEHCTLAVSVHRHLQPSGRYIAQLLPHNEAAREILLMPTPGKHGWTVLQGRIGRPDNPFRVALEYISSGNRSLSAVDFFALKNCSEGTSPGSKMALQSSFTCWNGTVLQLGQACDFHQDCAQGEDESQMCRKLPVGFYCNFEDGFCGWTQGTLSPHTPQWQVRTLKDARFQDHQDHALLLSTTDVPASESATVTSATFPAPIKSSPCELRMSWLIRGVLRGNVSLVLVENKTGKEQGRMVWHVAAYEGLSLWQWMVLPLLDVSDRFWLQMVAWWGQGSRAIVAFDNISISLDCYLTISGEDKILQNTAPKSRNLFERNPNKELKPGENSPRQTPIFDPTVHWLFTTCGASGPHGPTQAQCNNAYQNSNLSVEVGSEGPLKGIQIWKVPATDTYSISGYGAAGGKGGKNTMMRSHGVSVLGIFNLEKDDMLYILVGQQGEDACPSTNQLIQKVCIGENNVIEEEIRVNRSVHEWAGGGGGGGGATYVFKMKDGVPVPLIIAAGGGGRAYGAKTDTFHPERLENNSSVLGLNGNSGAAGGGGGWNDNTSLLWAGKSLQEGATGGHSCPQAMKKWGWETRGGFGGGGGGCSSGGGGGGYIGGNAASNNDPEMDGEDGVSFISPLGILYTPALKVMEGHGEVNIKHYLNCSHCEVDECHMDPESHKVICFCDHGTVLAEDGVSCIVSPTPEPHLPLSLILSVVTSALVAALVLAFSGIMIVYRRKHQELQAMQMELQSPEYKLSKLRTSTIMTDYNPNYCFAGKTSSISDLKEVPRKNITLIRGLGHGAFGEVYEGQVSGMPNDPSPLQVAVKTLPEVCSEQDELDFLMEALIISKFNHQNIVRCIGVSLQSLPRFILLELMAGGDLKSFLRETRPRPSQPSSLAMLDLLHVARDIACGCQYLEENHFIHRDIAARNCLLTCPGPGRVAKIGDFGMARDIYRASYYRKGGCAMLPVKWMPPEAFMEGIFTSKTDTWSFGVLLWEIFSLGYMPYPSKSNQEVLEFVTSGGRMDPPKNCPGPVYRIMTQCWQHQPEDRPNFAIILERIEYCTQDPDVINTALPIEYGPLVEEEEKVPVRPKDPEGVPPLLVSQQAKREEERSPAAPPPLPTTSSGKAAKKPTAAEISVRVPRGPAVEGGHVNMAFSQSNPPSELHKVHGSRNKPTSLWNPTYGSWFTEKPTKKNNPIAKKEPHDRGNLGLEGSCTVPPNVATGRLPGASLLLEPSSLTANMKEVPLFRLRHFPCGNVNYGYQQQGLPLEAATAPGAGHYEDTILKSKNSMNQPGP
Kind of experiment: ALK HTRF kinase assay. Summed up:
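Biotinylated peptide substrate, recombinant human ALK; detection via europium-chelate antibody to phosphotyrosine paired with streptavidin-APC. Potency expressed as IC50 from four-parameter curve fitting.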

The mark [6] stands for this setting: compound at a concentration of 500 nM or 1 mM (not specified), cells shown as percentage.
[7] abbreviates: method AA1 (90 μM ATP) or AA2 (1000 μM ATP), not stated per value.
Where [8] appears, read: method AA1 (30 μM ATP) or AA2 (1000 μM ATP), not stated per value.
[9] abbreviates: method AA1 (3 μM ATP) or AA2 (1000 μM ATP), not stated per value.
The mark [10] stands for this setting: compound at 500 nM or 1 mM, 90 μM ATP.
The mark [11] stands for this setting: percentage inhibition of the example compound at a concentration of 500 nM or 1 mM (not specified which).

T1 sequence (P23458 849-1154): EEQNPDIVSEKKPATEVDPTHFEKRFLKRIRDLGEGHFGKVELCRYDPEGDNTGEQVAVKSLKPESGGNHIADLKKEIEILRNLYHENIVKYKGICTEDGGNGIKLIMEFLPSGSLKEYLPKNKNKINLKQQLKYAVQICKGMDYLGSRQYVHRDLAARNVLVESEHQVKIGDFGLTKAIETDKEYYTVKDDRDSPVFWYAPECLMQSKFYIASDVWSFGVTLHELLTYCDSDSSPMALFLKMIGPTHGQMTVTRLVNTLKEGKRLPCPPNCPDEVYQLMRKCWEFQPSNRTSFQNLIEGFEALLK

For `CC(C)c1ccccc1NC(=O)Nc1ccc2cc1CCc1cccc(c1)Nc1ncc(Cl)c(n1)N2` [Example B104, N-[6-Chloro-2,4,8,22-tetraazatetracyclo[14.3.1.1(3,7).1(9,13)]docosa-1(20), 3(22),4,6,9(21),10,12,16,18-nonaen-12-yl]-N′-(2-isopropylphenyl)urea trifluoroacetate], the IC50 in experiment [1] (Table B1) came out at 4.9 nM; in experiment [2] (Table B1), 11 nM; in experiment [3] (Table B1) it was 81 nM; in experiment [4] (Table B1), 26 nM. In addition, the “ALK % of inhibition at a concentration of 500 nM or 1 mM” value (“ALK % of inhibition” below) in experiment [5] (setting [6]) was 55%.
Consider `O=C1NCc2cccc(c2)Nc2ncc(Cl)c(n2)Nc2cccc1c2` [Example C4, 6-Chloro-2,4,8,15,23-pentaazatetracyclo[15.3.1.1(3,7).1(9,13)]tricosa-1(21),3(23),4,6,9(22),10,12,17,19-nonaen-14-one], for which the IC50 in experiment [1] was 361 nM; in experiment [2] it was 350 nM; in experiment [3], 317 nM; in experiment [4], more than 1000 nM; in experiment [5] it was more than 1000 nM.
`O=C(Nc1ccc2cc1CCc1cccc(c1)Nc1ncc(Cl)c(n1)N2)NC1CCNCC1` [Example B181, N-[6-Chloro-2,4,8,22-tetraazatetracyclo[14.3.1.1(3,7).1(9,13)]docosa-1(20),3(22),4,6,9(21),10,12,16,18-nonaen-12-yl]-N′-piperidin-4-ylurea dihydrochloride]: the IC50 was determined as 70 nM in experiment [1] (Table B1), 177 nM in experiment [2] (Table B1), 236 nM in experiment [3] (Table B1) and 226 nM in experiment [4] (Table B1). The “ALK % of inhibition” value in experiment [5] (setting [6]) turned out to be 3.7%.
In the case of `CN(C)c1ccc(C(=O)Nc2ccc3cc2CCc2cccc(c2)Nc2ncc(Cl)c(n2)N3)cc1` [Example B82, N-[6-Chloro-2,4,8,22-tetraazatetracyclo[14.3.1.1(3,7).1(9,13)]docosa-1(20), 3(22),4,6,9(21),10,12,16,18-nonaen-12-yl]-4-(dimethylamino)benzamide bis(trifluoroacetate)], the IC50 in experiment [1] (Table B1) was determined as 7.9 nM; in experiment [2] (Table B1), 7.6 nM; in experiment [3] (Table B1), 44 nM; in experiment [4] (Table B1), 14 nM. The “ALK % of inhibition” value in experiment [5] (setting [6]) was 39%.
As to `O=C(CC1CCN(C(=O)c2ccc(F)cc2)CC1)Nc1ccc2cc1CCc1cccc(c1)Nc1ncc(Cl)c(n1)N2` [Example A203, N-[6-Chloro-2,4,8,22-tetraazatetracyclo[14.3.1.1(3,7).1(9,13)]docosa-1(20),3(22),4,6,9(21),10,12,16,18-nonaen-12-yl]-2-[1-(4-fluorobenzoyl)piperidin-4-yl]acetamide trifluoroacetate], the IC50 in experiment [1] (setting [7]) was 38 nM; in experiment [2] (setting [8]), 150 nM; in experiment [3] (setting [9]), more than 200 nM; in experiment [4], more than 200 nM. Further, the “ALK % of inhibition” value in experiment [5] (setting [10]) is 38%.
Take `O=C(CN1CCNCC1)Nc1ccc2cc1CCc1cccc(c1)Nc1ncc(Cl)c(n1)N2` [Example A114, tris(trifluoroacetate)]: the IC50 in experiment [1] (setting [7]) came to 25 nM; in experiment [2] (setting [8]) it was 13 nM; in experiment [3] (setting [9]) it was 59 nM; in experiment [4], 33 nM. For the same molecule, the “ALK % of inhibition” value in experiment [5] (setting [10]) was 19%.
As to `CC1CN(C(=O)Nc2ccc3cc2CCc2cncc(c2)Nc2ncc(Cl)c(n2)N3)CCN1c1ccccc1` (stereo not drawn) [Example B320, N-[6-Chloro-2,4,8,18,22-pentaazatetracyclo[14.3.1.1(3,7).1(9,13)]docosa-1(20),3(22),4,6,9(21),10,12,16,18-nonaen-12-yl]-3-methyl-4-phenylpiperazine-1-carboxamide tris(trifluoroacetate)], the IC50 in experiment [1] (Table B1) was 79 nM; in experiment [2] (Table B1), more than 400 nM; in experiment [3] (Table B1), more than 400 nM; in experiment [4] (Table B1) it was more than 400 nM. In addition, the “ALK % of inhibition” value in experiment [5] (setting [11]) turned out to be 57%.
In the case of `O=C(Nc1ccc2cc1CCc1cccc(c1)Nc1ncc(Cl)c(n1)N2)C1CCN(S(=O)(=O)c2ccccc2)CC1` [Example A42, N-[6-Chloro-2,4,8,22-tetraazatetracyclo[14.3.1.1(3,7).1(9,13)]docosa-1(20), 3(22),4,6,9(21),10,12,16,18-nonaen-12-yl]-1-(phenylsulfonyl)piperidine-4-carboxamide trifluoroacetate], the IC50 in experiment [1] (setting [7]) was 21 nM; in experiment [2] (setting [8]), 24 nM; in experiment [3] (setting [9]), 58 nM; in experiment [4] it was 183 nM. In addition, the “ALK % of inhibition” value in experiment [5] (setting [10]) was 34%.
Consider `CCCS(=O)(=O)NCCNC(=O)Nc1ccc2cc1CCc1cccc(c1)Nc1ncc(Cl)c(n1)N2` [Example B326, N-{2-[({[6-Chloro-2,4,8,22-tetraazatetracyclo[14.3.1.1(3,7).1(9,13)]docosa-1(20),3(22),4,6,9(21),10,12,16,18-nonaen-12-yl]amino}carbonyl)amino]ethyl}propane-1-sulfonamide trifluoroacetate], for which the IC50 in experiment [1] (Table B1) is 3 nM; in experiment [2] (Table B1), 3.4 nM; in experiment [3] (Table B1) it was 7.8 nM; in experiment [4] (Table B1), 6.9 nM. Also, the “ALK % of inhibition” value in experiment [5] (setting [11]) is given as 19%.
Regarding `Cn1ccc(C(=O)N2CC[C@H](NC(=O)Nc3ccc4cc3CCc3cccc(c3)Nc3ncc(Cl)c(n3)N4)C2)n1` [Example B232, N-[6-Chloro-2,4,8,22-tetraazatetracyclo[14.3.1.1(3,7).1(9,13)]docosa-1(20),3(22),4,6,9(21),10,12,16,18-nonaen-12-yl]-N′-{(3S)-1-[(1-methyl-1H-pyrazol-3-yl)carbonyl]pyrrolidin-3-yl}urea bis(trifluoroacetate)], the IC50 in experiment [1] (Table B1) stood at 4 nM; in experiment [2] (Table B1) it was 11 nM; in experiment [3] (Table B1), 72 nM; in experiment [4] (Table B1) it was 26 nM. The “ALK % of inhibition” value in experiment [5] (setting [6]) turned out to be 10%.
For the molecule `O=C(Nc1ccc2cc1CCc1cncc(c1)Nc1ncc(Cl)c(n1)N2)N[C@H]1CCN(C(=O)c2cn[nH]c2)C1` [Example B267, N-[6-chloro-2,4,8,18,22-pentaazatetracyclo[14.3.1.1(3,7).1(9,13)]docosa-1(20),3(22),4,6,9(21),10,12,16,18-nonaen-12-yl]-N′-[(3S)-1-(1H-pyrazol-4-ylcarbonyl)pyrrolidin-3-yl]urea bis(trifluoroacetate)], the IC50 in experiment [1] (Table B1) was 27 nM; in experiment [2] (Table B1), 765 nM; in experiment [3] (Table B1), more than 10000 nM; in experiment [4] (Table B1), 887 nM. Also, the “ALK % of inhibition” value in experiment [5] (setting [6]) came out at 12%.
On to `O=C(Nc1ccc2cc1CCc1cncc(c1)Nc1ncc(Cl)c(n1)N2)N1CCN(c2ccncc2)CC1` [Example B293, N-[6-Chloro-2,4,8,18,22-pentaazatetracyclo[14.3.1.1(3,7).1(9,13)]docosa-1(20),3(22),4,6,9(21),10,12,16,18-nonaen-12-yl]-4-pyridin-4-ylpiperazine-1-carboxamide tetrakis(trifluoroacetate)], for which the IC50 is 60 nM in experiment [1] (Table B1), more than 200 nM in experiment [2] (Table B1), more than 200 nM in experiment [3] (Table B1) and 150 nM in experiment [4] (Table B1). In addition, the “ALK % of inhibition” value in experiment [5] (setting [6]) is 45%.
Take `Cc1nc(S(=O)(=O)N2CCC(CC(=O)Nc3ccc4cc3CCc3cncc(c3)Nc3ncc(Cl)c(n3)N4)CC2)cn1C` [Example A230, N-[6-Chloro-2,4,8,18,22-pentaazatetracyclo[14.3.1.1(3,7).1(9,13)]docosa-1(20),3(22),4,6,9(21),10,12,16,18-nonaen-12-yl]-2-{1-[(1,2-dimethyl-1H-imidazol-4-yl)sulfonyl]piperidin-4-yl}acetamide bis(trifluoroacetate)]: the IC50 is 15 nM in experiment [1] (setting [7]), 130 nM in experiment [2] (setting [8]), more than 400 nM in experiment [3] (setting [9]) and 255 nM in experiment [4]. The “ALK % of inhibition” value in experiment [5] (setting [10]) was determined as 50%.
Taken in the same sequence, the figures for `O=C(CC1CCN(S(=O)(=O)c2cccnc2)CC1)Nc1ccc2cc1CCc1cncc(c1)Nc1ncc(Cl)c(n1)N2` [Example A202, N-[6-Chloro-2,4,8,18,22-pentaazatetracyclo[14.3.1.1(3,7).1(9,13)]docosa-1(20),3(22),4,6,9(21),10,12,16,18-nonaen-12-yl]-2-[1-(pyridin-3-ylsulfonyl)piperidin-4-yl]acetamide tris(trifluoroacetate)] were 0.7 nM, 14 nM, more than 200 nM, 150 nM and 42%.
`Cc1nccc(N2CCC(CC(=O)Nc3ccc4cc3CCc3cncc(c3)Nc3ncc(Cl)c(n3)N4)CC2)n1` [Example A182, N-[6-Chloro-2,4,8,18,22-pentaazatetracyclo[14.3.1.1(3,7).1(9,13)]docosa-1(20),3(22),4,6,9(21),10,12,16,18-nonaen-12-yl]-2-[1-(2-methylpyrimidin-4-yl)piperidin-4-yl]acetamide tris(trifluoroacetate)]: the IC50 in experiment [1] (setting [7]) is 48 nM; in experiment [2] (setting [8]), more than 200 nM; in experiment [3] (setting [9]), more than 200 nM; in experiment [4], more than 200 nM. In experiment [5] (setting [10]), the “ALK % of inhibition” value is 32%.

The values are drawn from patent US8871753B2, “Macrocyclic compounds and their use as kinase inhibitors” (Incyte Corporation, priority 2008, dated 2014).
